Laboratory results as given in patent US20080319017A2, “Non-Anilinic Derivatives of Isothiazol-3(2H)-Thione 1,1-Dioxides As Liver X Receptor Modulators” (ASTRAZENECA AB, priority 2005, published 2008).

Target: T1, human LXRalpha (Homo sapiens, UniProt Q13133)
T1 construct: human LXRalpha (amino acid 205-447); expressed in transfected cells; host or cells: U2/OS osteosarcoma cells, electroporated with pSGGAL-LXRalpha (pSG5 backbone)
T1 sequence (Q13133 205-447): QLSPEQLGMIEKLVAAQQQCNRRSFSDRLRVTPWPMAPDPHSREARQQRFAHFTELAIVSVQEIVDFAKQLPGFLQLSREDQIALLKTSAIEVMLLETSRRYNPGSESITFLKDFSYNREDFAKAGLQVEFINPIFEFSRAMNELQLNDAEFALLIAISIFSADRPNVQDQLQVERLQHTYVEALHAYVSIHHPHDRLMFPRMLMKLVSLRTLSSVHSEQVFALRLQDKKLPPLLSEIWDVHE
Experiment: Transactivation assay (reporter gene assay), GAL4-LXRalpha LBD luciferase in U2/OS cells
Type: cell-based
Conditions: U2/OS osteosarcoma cells, 48 h incubation, read-out: EC50 for LXRα in the reporter gene assay
Experimental: Expression vectors were prepared by inserting the ligand binding domain cDNA (complementary DNA) of human LXRalpha (amino acid 205-447) and LXRbeta (amino acid 216-461) in frame with, 3′ to the yeast GAL4 transcription factor DNA binding domain and the nuclear localization signal from the T-antigen of Polyoma Virus in the eucaryotic expression vector pSG5 (Stratagene). The resulting expression vectors pSGGAL-LXRalpha and pSGGAL-LXRbeta were used in cotransfection experiments together with the pGL3 luciferase reporter plasmid containing a minimal SV40 promoter (Promega) and five copies of the UAS GAL4 recognition site. 2.5 μg pSGGAL-LXRalpha or beta were mixed with 25 μg pGL3 5×UAS and 22.5 μg pBluscript (Stratagene) in 0.95 mL ice cold PBS containing approx. 4-9 milj. U2/OS osteosarcoma cells. After a five minute incubation on ice the cell/DNA mixture was electroporated in 0.4 cm cuvettes at 960 μF, 230 V using a BioRad electroporator and diluted to 0.32 milj cells/mL in complete DMEM [Dulbecco's Modified Eagle Medium w/o phenol red, (Gibco 11880-028) including 10% FBS (Foetal Bovine Serum), 1% PEST (Penicillin Streptomycin), 20 mM Hepes, 2 mM L-Glutamine and 0.36% Glucose Gibco 31966-021] medium. […] Luciferase activity was measured as Luminescence in the Wallac Victor reader after 15 min. incubation at room temperature. […]

Which EC50 does the source give for `CC(C)N1C(=S)C(NC2CCN(c3ncc(C(F)(F)F)cc3Cl)CC2)=C(c2ccccc2)S1(=O)=O` [Example 1, 4-({1-[3-Chloro-5-(trifluoromethyl)pyridin-2-yl]piperidin-4-yl}amino)-2-isopropyl-5-phenylisothiazole-3(2H)-thione 1,1-dioxide] here?
Its EC50 is 3.1 µM.

`CC(C)N1C(=S)C(NCCCCc2ccccc2)=C(c2ccccc2)S1(=O)=O` [Example 2, 2-Isopropyl-5-phenyl-4-[(4-phenylbutyl)amino]isothiazole-3(2H)-thione 1,1-dioxide] was tested. Which EC50 did it give?
The EC50 was 10.5 µM.
